The values that follow come from patent publication EP1174421A1, “3-AMIDINOBENZENESULFONAMIDE DERIVATIVES, MEDICINAL COMPOSITIONS CONTAINING THE SAME AND INT[…] THE PRODUCTION THEREOF” (Kissei Pharmaceutical Co., Ltd., priority 1999, dated 2000).

The target of one data set is T1, human thrombin (Homo sapiens, UniProt P00734).
T1 construct: human thrombin (Sigma Chemical Company); purchased Sigma Chemical Company
Put plainly: Measurement of inhibitory activity for thrombin (S-2238 chromogenic substrate). The class given is biochemical. The method, then:
Five µL of dimethylsulfoxide solution of test compound, 375 µL of tris-hydrochloric acid buffer (pH 8.4) and 100 µL of 1 mM S-2238 (Daiichi Pure Chemicals) aqueous solution were mixed. Then 20 µL of 2.0 U/mL human thrombin (Sigma Chemical Company) in gelatin-glycine buffer was added and the mixture was incubated for 10 minutes at 37 °C. The reaction was terminated with the addition of 100 µL of 60 % acetic acid and absorbance (405 nm) was measured.
The group without test compound was defined as control and the group without human thrombin was defined as blank. […]

For another data set, the system named is normal human plasma. The data set can be described thus: Measurement of anticoagulation effects (plasma prothrombin time). The class given is biochemical. Conditions: CT2: concentration that prolonged the clotting time (prothrombin time) of control by 2 times. The protocol: Two µL of dimethylsulfoxide solution of test compound which was put in the process tube was incubated at 37 °C, and 50 µL of normal human plasma (George King Bio-Medical Inc.) was mixed. One minute later, 100 µL of plasma prothrombin time reagent (Neoplastin Plus® , Boehringer Mannheim) was added into the mixture. Prothrombin time was measured with ST4 (Boehringer Mannheim).
The group without test compound was defined as control. The concentration of test compound that prolonged the clotting time of control by 2 times (CT2) was obtained and this value was used as the index of anticoagulation activity.

The target of data set [1] is T2, human activated blood coagulation factor X (Homo sapiens, UniProt P00742).
T2 construct: purchased Calbiochem Corporation
T2 sequence (P00742 235-488 limits assumed): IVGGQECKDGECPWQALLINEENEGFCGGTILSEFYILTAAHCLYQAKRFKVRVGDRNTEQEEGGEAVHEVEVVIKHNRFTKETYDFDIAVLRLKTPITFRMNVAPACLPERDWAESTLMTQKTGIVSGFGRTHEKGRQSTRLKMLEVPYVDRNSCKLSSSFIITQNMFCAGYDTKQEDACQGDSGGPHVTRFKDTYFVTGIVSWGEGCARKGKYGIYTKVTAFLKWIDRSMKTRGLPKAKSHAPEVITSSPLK
T2 sequence (P00742 41-179 partner limits assumed): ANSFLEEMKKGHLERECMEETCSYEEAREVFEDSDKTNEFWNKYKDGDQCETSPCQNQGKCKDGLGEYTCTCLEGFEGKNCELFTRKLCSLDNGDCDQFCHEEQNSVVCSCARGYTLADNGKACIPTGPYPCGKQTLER
Put plainly: Measurement of inhibitory activity for activated blood coagulation factor X (S-2222 chromogenic substrate). The format is biochemical. The method, then: Five µL of dimethylsulfoxide solution of test compound, 375 µL of tris-hydrochloric acid buffer (pH 8.4) and 100 µL of 1 mM S-2222 (Daiichi Pure Chemicals) aqueous solution were mixed. Then 20 µL of 0.6 U/mL human activated blood coagulation factor X (Calbiochem Corporation) in gelatin-glycine buffer was added and the mixture was incubated for 10 minutes at 37 °C. The reaction was terminated with the addition of 100 µL of 60 % acetic acid and absorbance (405 nm) was measured.
The group without test compound was defined as control and the group without human activated blood coagulation factor X was defined as blank.

The test system of the next data set is Male Wistar rats. Put plainly: Acute toxicity test. As to conditions: 30 mg/kg, through tail vein (intravenous), groups of 5 rats, survival judged for 24 hours. The format is in vivo. The method, then:
Male Wistar rats aged 7 weeks (SLC) were divided into several groups consisting of 5 rats. Test compound was dissolved at the concentration that became the administration volume of
2.5 mL/kg. The solution was administered through tail vein at an infusion rate of 1 mL/minute. Observations were performed at constant intervals, and survival rate was judged for 24 hours.

Structures are written as SMILES. Counter-ions that a name gives are not always drawn. Like-named read-outs stand apart in the source and are kept apart here.

On to `CC(=N)N1CCC(Oc2ccc(CCNS(=O)(=O)c3cc(C(=N)N)ccc3O)cc2)CC1` [Compound 10, 5-Amidino-2-hvdroxv-N-[2-[4-[1-(1-iminoethyl)piperidin-4-yloxy]phenyl]ethyl]benzenesulfonamide dihydrochloride], for which the IC50 against human thrombin was above 100000 nM; in data set [1], 110 nM. This compound showed an Anticoagulation effect with normal human plasma of 0.22 µM.

Turning to `CC(C)c1ccc(CCNS(=O)(=O)c2cc(C(=N)N)ccc2O)cc1` [Compound 2, 5-Amidino-N-[2-(4-isopropylphenyl)ethyl]-2-hydroxybenzene-sulfonamide hydrochloride], the IC50 was 101000 nM at human thrombin (IC50, pH 8.4, 10 minutes at 37 °C, absorbance 405 nm, read-out: Inhibitory activity for thrombin) and 64 nM in data set [1] (IC50, pH 8.4, 10 minutes at 37 °C, absorbance 405 nm, read-out: Inhibitory activity for activated blood coagulation factor X).

Turning to `CC(=N)N1CCC(c2ccc(CCNS(=O)(=O)c3cc(C(=N)N)ccc3O)cc2)CC1` [Compound 8, 5-Amidino-2-hydroxy-N-[2-[4-[1-(1-iminoethyl)piperidin-4-yl]phenyl]ethyl]benzenesulfonamide dihydorchloride], the Death cases in the data set with Male Wistar rats was 0/5; with Male Wistar rats (listed as 5-amidino-2-hydroxy-N-[2-[4-[1-(1-iminoethyl)piperidin-4-yl]phenyl]ethyl]benzene) it was “no death was observed”. Also, the figures for the IC50 (on human thrombin; in data set [1]) were above 100000 nM and 87 nM, respectively. Also, in the data set with normal human plasma, the Anticoagulation effect is on record as 0.21 µM.

`CC(=N)N1CC[C@H](Oc2ccc(CCNS(=O)(=O)c3cc(C(=N)N)ccc3O)cc2)C1` [Compound 9, (S)-5-Amidino-2-hydroxy-N-[2-[4-[1-(1-iminoethyl)pyrrolidin-3-yloxylphenyl]ethyl]benzenesulfonamidedihydrochloride]: the values for the IC50 (against human thrombin; in data set [1]) were above 100000 nM and 88 nM, respectively. This compound had an Anticoagulation effect in the data set on normal human plasma of 0.18 µM.
